Measurements from PubChem BioAssay AID248 (DTP/NCI, 2004).
Where “and” joins values, the source holds several entries; their conditions need not be identical. Equal entries are not always repeated. Inconclusive results and toxic doses are left out. Rule as the data show it: active = T/C of 150% or more; inactive = T/C below 125%.

Tested on: L1210 leukemia ip in BDF1 mice, survival T/C
Test: NCI In Vivo Anticancer Drug Screen. Data for tumor model L1210 Leukemia (intraperitoneal) in B6D2F1 (BDF1) mice
Conditions: endpoint: mean survival time, higher = longer survival
In short: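 Ratio derived from survival: compound-dosed mice over vehicle-dosed mice, all bearing a transplantable tumor.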

[1] = dose: 50.0 mg/kg/injection, schedule: Q01DX001 (ip), vehicle: carboxymethylcellulose (CMC)
[2] = dose: 100.0 mg/kg/injection, schedule: Q01DX001 (ip), vehicle: carboxymethylcellulose (CMC)
[3] = dose: 200.0 mg/kg/injection, schedule: Q01DX001 (ip), vehicle: carboxymethylcellulose (CMC)
[4] = dose: 400.0 mg/kg/injection, schedule: Q01DX001 (ip), vehicle: carboxymethylcellulose (CMC)
[5] = dose: 100.0 mg/kg/injection, schedule: Q04DX002 (ip), vehicle: gum acacia
[6] = dose: 200.0 mg/kg/injection, schedule: Q04DX002 (ip), vehicle: gum acacia
[7] = dose: 400.0 mg/kg/injection, schedule: Q04DX002 (ip), vehicle: gum acacia
[8] = dose: 100.0 mg/kg/injection, schedule: Q01DX009 (ip), vehicle: Klucel (hydroxypropylcellulose) (HPC)
[9] = dose: 200.0 mg/kg/injection, schedule: Q01DX009 (ip), vehicle: Klucel (hydroxypropylcellulose) (HPC)
[10] = dose: 400.0 mg/kg/injection, schedule: Q01DX009 (ip), vehicle: Klucel (hydroxypropylcellulose) (HPC)
[11] = dose: 100.0 mg/kg/injection, schedule: Q01DX009 (ip), vehicle: saline with Tween-80
[12] = dose: 200.0 mg/kg/injection, schedule: Q01DX009 (ip), vehicle: saline with Tween-80
[13] = dose: 400.0 mg/kg/injection, schedule: Q01DX009 (ip), vehicle: saline with Tween-80
[14] = dose: 100.0 mg/kg/injection, schedule: Q04DX003 (ip), vehicle: saline with Tween-80
[15] = dose: 200.0 mg/kg/injection, schedule: Q04DX003 (ip), vehicle: saline with Tween-80
[16] = dose: 400.0 mg/kg/injection, schedule: Q04DX003 (ip), vehicle: saline with Tween-80
[17] = dose: 100.0 mg/kg/injection, schedule: Q04DX003 (ip), vehicle: Klucel (hydroxypropylcellulose) (HPC)
[18] = dose: 200.0 mg/kg/injection, schedule: Q04DX003 (ip), vehicle: Klucel (hydroxypropylcellulose) (HPC)
[19] = dose: 400.0 mg/kg/injection, schedule: Q04DX003 (ip), vehicle: Klucel (hydroxypropylcellulose) (HPC)

Measured: T/C

N#C/C(=C/c1ccc(Cl)cc1)C(=O)O
inactive: dose: 62.5 mg/kg/injection, schedule: Q01DX009 (ip), vehicle: Klucel (hydroxypropylcellulose) (HPC) 115 % of control | dose: 100.0 mg/kg/injection, schedule: Q04DX002 (ip), vehicle: Klucel (hydroxypropylcellulose) (HPC) 109 % of control | dose: 125.0 mg/kg/injection, schedule: Q01DX009 (ip), vehicle: Klucel (hydroxypropylcellulose) (HPC) 86 % of control | dose: 200.0 mg/kg/injection, schedule: Q04DX002 (ip), vehicle: Klucel (hydroxypropylcellulose) (HPC) 98 % of control | dose: 250.0 mg/kg/injection, schedule: Q01DX009 (ip), vehicle: Klucel (hydroxypropylcellulose) (HPC) 86 % of control

COc1ccccc1CN1CCCN(Cc2ccccc2OC)C1c1cccnc1
inactive: [1] 112 % of control | [2] 108 % of control | [3] 106 % of control | [4] 108 % of control

O=[N+]([O-])c1cc(S(=O)(=O)c2ccc(Nc3ccccc3)c([N+](=O)[O-])c2)ccc1Nc1ccccc1
inactive: [5] 93 % of control | [6] 103 % of control | [7] 97 % of control

COc1cc(/C=N/N=C(\C)c2ccc3ccccc3c2)cc(OC)c1OC
inactive: [8] 90 % of control | [9] 94 % of control | [10] 100 % of control

c1ccc(N2N=NC3C4CCC(C4)C32)cc1 (stereo not drawn)
inactive: [11] 108 % of control | [12] 98 % of control | [13] 104 % of control

COc1cc2c(c(Cl)c1N)-c1ccccc1C2
inactive: dose: 177.0 mg/kg/injection, schedule: Q01DX001 (ip), vehicle: carboxymethylcellulose (CMC) 104 % of control | dose: 266.0 mg/kg/injection, schedule: Q01DX001 (ip), vehicle: carboxymethylcellulose (CMC) 98 % of control

CCN(CC)CN1C(=O)C(=O)c2ccccc21
inactive: dose: 100.0 mg/kg/injection, schedule: Q01DX001 (ip), vehicle: steriod suspending solution 92 % of control | dose: 200.0 mg/kg/injection, schedule: Q01DX001 (ip), vehicle: steriod suspending solution 108 % of control | dose: 400.0 mg/kg/injection, schedule: Q01DX001 (ip), vehicle: steriod suspending solution 114 % of control

CCOc1ccc(Br)cc1/C=N\NC(=O)c1ccccc1N(C)C
inactive: [5] 90 % of control | [6] 100 % of control | [7] 90 % of control

O=[N+]([O-])c1cc2cc(Br)ccc2o1
inactive: dose: 12.5 mg/kg/injection, schedule: Q04DX002 (ip), vehicle: Klucel (hydroxypropylcellulose) (HPC) 102 % of control | dose: 25.0 mg/kg/injection, schedule: Q04DX002 (ip), vehicle: Klucel (hydroxypropylcellulose) (HPC) 106 % of control | dose: 50.0 mg/kg/injection, schedule: Q04DX002 (ip), vehicle: Klucel (hydroxypropylcellulose) (HPC) 97 % of control

COc1ccc(OC)c(NC(=O)c2ccc(Cl)cc2)c1
inactive: dose: 100.0 mg/kg/injection, schedule: Q01DX001 (ip), vehicle: saline with Tween-80 101 % of control | [11] 97 % of control | dose: 100.0 mg/kg/injection, schedule: Q04DX002 (ip), vehicle: saline with Tween-80 104 % of control and 110 % of control | [14] 94 % of control | dose: 200.0 mg/kg/injection, schedule: Q01DX001 (ip), vehicle: saline with Tween-80 97 % of control | [12] 95 % of control and 97 % of control | dose: 200.0 mg/kg/injection, schedule: Q04DX002 (ip), vehicle: saline with Tween-80 104 % of control and 92 % of control | [15] 97 % of control | dose: 400.0 mg/kg/injection, schedule: Q01DX001 (ip), vehicle: saline with Tween-80 95 % of control | [13] 102 % of control and 124 % of control | dose: 400.0 mg/kg/injection, schedule: Q04DX002 (ip), vehicle: saline with Tween-80 94 % of control and 108 % of control | [16] 95 % of control

Nc1nc(N)c(-c2ccccc2)c(C(=O)O)n1
inactive: dose: 50.0 mg/kg/injection, schedule: Q01DX001 (ip), vehicle: Klucel (hydroxypropylcellulose) (HPC) 101 % of control | dose: 50.0 mg/kg/injection, schedule: Q04DX003 (ip), vehicle: Klucel (hydroxypropylcellulose) (HPC) 94 % of control | dose: 100.0 mg/kg/injection, schedule: Q01DX001 (ip), vehicle: Klucel (hydroxypropylcellulose) (HPC) 95 % of control | [17] 105 % of control | dose: 200.0 mg/kg/injection, schedule: Q01DX001 (ip), vehicle: Klucel (hydroxypropylcellulose) (HPC) 95 % of control | [18] 105 % of control

COc1c(C)c(Br)c(OC)c2ccccc12
inactive: [11] 89 % of control | [12] 94 % of control | [13] 94 % of control

CCOC(=O)C1(C)OCCO1
inactive: dose: 100.0 mg/kg/injection, schedule: Q01DX009 (ip), vehicle: saline 101 % of control | dose: 100.0 mg/kg/injection, schedule: Q04DX003 (ip), vehicle: saline 103 % of control | dose: 200.0 mg/kg/injection, schedule: Q01DX009 (ip), vehicle: saline 100 % of control | dose: 200.0 mg/kg/injection, schedule: Q04DX003 (ip), vehicle: saline 96 % of control | dose: 400.0 mg/kg/injection, schedule: Q01DX009 (ip), vehicle: saline 95 % of control | dose: 400.0 mg/kg/injection, schedule: Q04DX003 (ip), vehicle: saline 99 % of control

O=C(C=C(C(F)(F)F)C(F)(F)F)c1ccc(Cl)cc1
inactive: dose: 3.13 mg/kg/injection, schedule: Q01DX009 (ip), vehicle: saline with Tween-80 101 % of control | dose: 6.25 mg/kg/injection, schedule: Q01DX009 (ip), vehicle: saline with Tween-80 97 % of control | dose: 12.5 mg/kg/injection, schedule: Q01DX009 (ip), vehicle: saline with Tween-80 100 % of control | dose: 25.0 mg/kg/injection, schedule: Q01DX009 (ip), vehicle: saline with Tween-80 97 % of control and 101 % of control | dose: 50.0 mg/kg/injection, schedule: Q04DX003 (ip), vehicle: saline with Tween-80 91 % of control | [14] 86 % of control | [15] 86 % of control

OCc1ccn2c1C(O)CC2 (stereo not drawn)
inactive: dose: 29.0 mg/kg/injection, schedule: Q01DX009 (ip), vehicle: saline 100 % of control | dose: 45.0 mg/kg/injection, schedule: Q01DX009 (ip), vehicle: saline 115 % of control | [14] 108 % of control | dose: 150.0 mg/kg/injection, schedule: Q01DX009 (ip), vehicle: saline 111 % of control | [15] 117 % of control | [16] 97 % of control

O=C(Nc1ccc(F)cc1)Nc1cccc(C(=O)O)c1
inactive: [8] 96 % of control | [17] 96 % of control | [9] 107 % of control | [18] 100 % of control | [10] 95 % of control | [19] 105 % of control

O=c1[nH]c(=S)n2ncnc2[nH]1
inactive: [14] 109 % of control | [15] 102 % of control | [16] 95 % of control

CCCC(C)C(O)C(C)C (stereo not drawn)
inactive: [1] 93 % of control | [2] 95 % of control | [3] 95 % of control | [4] 93 % of control

[N-]=[N+]=NCc1cnccn1
inactive: dose: 12.5 mg/kg/injection, schedule: Q01DX009 (ip), vehicle: saline 103 % of control | dose: 12.5 mg/kg/injection, schedule: Q04DX003 (ip), vehicle: saline 98 % of control | dose: 25.0 mg/kg/injection, schedule: Q01DX009 (ip), vehicle: saline 101 % of control | dose: 25.0 mg/kg/injection, schedule: Q04DX003 (ip), vehicle: saline 98 % of control | dose: 50.0 mg/kg/injection, schedule: Q04DX003 (ip), vehicle: saline 98 % of control

CC(C)C1=CC23CCC4C(C)(C(N)=O)CCCC4(C)C2CC1C1C(=O)NC(=O)C13 (stereo not drawn)
inactive: [17] 97 % of control | [18] 95 % of control | [19] 92 % of control

COc1nc(-c2ccccc2)cn[n+]1C
inactive: dose: 33.0 mg/kg/injection, schedule: Q01DX001 (ip), vehicle: saline with Tween-80 103 % of control | dose: 50.0 mg/kg/injection, schedule: Q01DX001 (ip), vehicle: saline with Tween-80 107 % of control | dose: 75.0 mg/kg/injection, schedule: Q01DX001 (ip), vehicle: saline with Tween-80 113 % of control
